pIC50: −log10 of the molar value. Read-outs that look alike come from different tables or passages of the source.
Assays:
MNT‐1 cells [1] = experiment: Melanin content in MNT‐1 cells after 6 days of treatment; format: cell-based, human
Description: MNT‐1 cells were exposed to varying concentrations of test compounds for 6 days. After treatment, cells were harvested and lysed in RIPA buffer on ice for 20 min. Lysates were centrifuged at 13 000 rpm for 10 min at 4°C, and the supernatant was collected. Protein concentration was quantified using a BCA Protein Assay Kit (Thermo Fisher). To extract melanin, cell pellets were dissolved in 1 M NaOH and incubated for 3 h at 80°C. Absorbance at 405 nm was measured using a Synergy H1 Hybrid Reader. Melanin content was quantified by referencing a standard curve of synthetic melanin (maximum concentration 50 μg/mL, 2‐fold gradient dilution, 8 concentration points). Melanin content was normalized to protein concentration (μg melanin/mg protein), and IC50 values were calculated using GraphPad software.
FIGURE 3 Inhibition of melanin production in MNT‐1 by KT‐939, Thiamidol, and 4‐butylresorcinol. MNT‐1 cells were treated with different concentrations of KT‐939, Thiamidol, or 4‐butylresorcinol for 6 days. The melanin content was quantified based on the standard curve of melanin, and the melanin content per mg of protein was utilized for IC50 calculations with GraphPad software.

MNT‐1 cells [2] = experiment: Wash‐out assay, melanin content in MNT‐1 cells after drug withdrawal; format: cell-based, human; details: for inhibition at 1 µM / inhibition at 10 µM: Homo sapiens, read-out: melanin inhibition rate after washout; for inhibition at 1 µM: MNT-1, 1 μM for 6 days; for inhibition at 10 µM: MNT-1, 10 μM for 6 days
Description: MNT‐1 cells were treated with 1 or 10 μM KT‐939 for six days, after which the drug‐containing medium was replaced with standard culture medium. Melanin content was measured at various time points.
FIGURE 4 The inhibitory effect of KT‐939 on melanin production is reversible. MNT‐1 cells were exposed to 1 or 10 μM of KT‐939 for 6 days, followed by drug washout and replacement with normal medium. Melanin content was measured at specified time points. Data represent the mean ± standard deviation of three independent experiments.

[3] = DPPH radical scavenging assay
Description: A DPPH radical scavenging assay kit (Solarbio) was used to assess antioxidant activity, following the manufacturer's instructions. Briefly, 10 μL of each test compound at the indicated concentrations was mixed with 190 μL DPPH solution in a 96‐well plate. Control wells (10 μL compound + 190 μL ethanol) and blank wells (10 μL solvent + 190 μL ethanol) were included. The reaction mixtures were gently shaken and incubated for 30 min at room temperature in the dark. Absorbance was measured at 515 nm using a Synergy H1 Hybrid Reader.
A DPPH radical scavenging assay was conducted to evaluate the antioxidant activity of KT‐939 at various concentrations, with a maximum concentration of 10 mM in a 5‐fold dilution series. Data represent mean ± standard deviation of three independent experiments.

[4] = test system: NRF2/ARE signaling pathway; experiment: NRF2/ARE‐luciferase reporter assay in HEK293T cells; format: cell-based, human; details: 10 µM, 48 h, relative to DMSO
Description: The NRF2‐responsive firefly luciferase reporter plasmid (pGL4.27_ARE NRF2‐SPE) and Renilla luciferase control plasmid (pRL‐TK) were co‐transfected into HEK293T cells using Lipofectamine 2000. After 24 h, transfected cells were seeded into 96‐well plates and incubated overnight. Test compounds (10 μM) were added, and cells were incubated for an additional 48 h. Luciferase activities were measured using the Dual‐Lumi Luciferase Reporter Assay Kit (Beyotime Biotechnology), following the manufacturer's instructions.
FIGURE 6 KT‐939 activates the ARE/NRF2 signaling pathway. HEK293T cells transfected with an NRF2‐responsive firefly luciferase reporter were treated with 10 µM of KT‐939, hydroquinone (Hq), 377, or 4‐butylresorcinol for 48 h. Luminescence signals were normalized to renilla and expressed relative to DMSO control. *** p < 0.001 vs DMSO.

B16‐F10 cells = experiment: Cell viability, B16‐F10; format: cell-based, murine; details: B16‐F10, 72 h, up to 50 μM
Description: (§1) B16‐F10, MNT‐1, and HaCaT cells (5000 cells/well) were seeded into 96‐well plates and incubated overnight. Culture medium (50 μL) containing varying concentrations of KT‐939 was added to each well, and cells were incubated for 72 h. Cell viability was assessed using the Cell Viability Assay Kit (Vazyme Biotech), following the manufacturer's instructions. Luminescence was measured using a Synergy H1 Hybrid Reader. DMSO‐treated cells served as the control, and survival rates were calculated and analyzed with GraphPad software.
(§2) B16‐F10, MNT‐1, and HaCaT cells were incubated with different concentrations of KT‐939 for 72 h. Cell viability was assessed and normalized to the DMSO‐treated control group.

MNT‐1 cells [5] = experiment: Cell viability, MNT‐1; format: cell-based, human; details: MNT‐1, 72 h, up to 50 μM
Description: as §1, §2

HaCaT cells = experiment: Cell viability, HaCaT; format: cell-based, human; details: 72 h, up to 50 μM
Description: as §1, §2

Which results are given for `CC1(C(=O)Nc2nc(-c3ccc(O)cc3O)cs2)COC1` [KT‐939, N‐(4‐(2,4‐Dihydroxyphenyl) Thiazol‐2‐yl)‐3‐Methyloxetane‐3‐Carboxamide]?
pIC50 (MNT‐1 cells [1]; Homo sapiens, 144 h, MNT‐1, 6 days, read-out: IC50 of melanin production): 6.44; inhibition at 0.37 µM (MNT‐1 cells [1]; Homo sapiens, MNT-1, 144 h, 0.37 μM, 6 days, read-out: inhibition of melanin production): 48.4%; inhibition at 1.1 µM (MNT‐1 cells [1]; Homo sapiens, MNT-1, 144 h, 1.1 μM, 6 days, read-out: inhibition of melanin production): 63.3%; inhibition at 3.3 µM (MNT‐1 cells [1]; Homo sapiens, MNT-1, 144 h, 3.3 μM, 6 days, read-out: inhibition of melanin production): 83.9%; inhibition at 10 µM (MNT‐1 cells [1]; Homo sapiens, MNT-1, 144 h, 10 μM, 6 days, read-out: inhibition of melanin production): 86.7%; fold greater melanin inhibitory potency compared to Thiamidol (MNT‐1 cells [1]; ratio of IC50, vs Thiamidol): approximately 3.6 fold; melanin inhibition after washout (MNT‐1 cells [2]; 1 μM for 6 days, after seven days): returning to baseline; melanin content after washout (MNT‐1 cells [2]; 10 μM for 6 days, after 11 days of drug withdrawal): fully returned to normal levels; inhibition at 1 µM (MNT‐1 cells [2]; day 3 after washout): 38%; inhibition at 1 µM (MNT‐1 cells [2]; day 5 after washout): 28.3%; inhibition at 10 µM (MNT‐1 cells [2]; day 3 after washout): 66.6%; inhibition at 10 µM (MNT‐1 cells [2]; day 5 after washout): 52.7%; inhibition at 10 µM (MNT‐1 cells [2]; day 7 after washout): 21.3%; inhibition at 10 µM (MNT‐1 cells [2]; day 9 after washout): 20%; DPPH clearance rate ([3]; 0.4 mM): 8.9%; DPPH clearance rate ([3]; 2 mM): 20.2%; DPPH clearance rate ([3]; 10 mM): 43.2%; DPPH clearance rate ([3]; as summed up in the discussion, concentration not given): exceeding 40%; NRF2 signaling pathway activation (luciferase reporter) [4]: significantly enhanced the NRF2 signaling pathway; cytotoxicity (cell viability) (B16‐F10 cells): no significant cytotoxicity; cytotoxicity (cell viability) (MNT‐1 cells [5]): no significant cytotoxicity; cytotoxicity (cell viability) (HaCaT cells): no significant cytotoxicity

Source: article PMC12569736 (Journal of Cosmetic Dermatology, 2025)
